Results from patent US20060148732A1, “Inhibition of NF-kappaB by triterpene compositions” (priority 2000, published 2006).

Tests used:
SKH-1 hairless mice = assay: UVB-induced skin lesions; type: in vivo, mouse; details: UVB-irradiated SKH-1 mice; topical, 15 min before UVB
Procedure: In the study, SKH-1 hairless mice are irradiated with UVB radiation at the dose of 1.8 kJ/m^2 for up to 15 min. Mice are pretreated with two different doses of F035 of (2 mg and 4 mg per dose) as well as negative controls (F060 or acetone alone). It is believed a minimum of 10 mice per group are needed to obtain statistically meaningful results. […] The studies are conducted for a short period of time to evaluate the preventive effect of the compounds. It is not expected to see visible tumors, even with UVB alone, only skin lesions within the specified time-frame. A slight erythema (minor redness of the skin) may be observed, which should disappear the next day after irradiation.
The UV apparatus used has eight Westinghouse FS40 sunlamps, an IL-1400A radiometer/photometer, and an attached IL-1403 UVB phototherapy radiometer with a SEL 240/UVB-1/TD detector. The middle part has several chambers, each holding an individual mouse. There are holes inside the chambers for proper ventilation while mice are being irradiated. The chambers rotate in circular motion during irradiation so each mouse is exposed to UVB light uniformly. […] The amount of the UVB exposure will be measured with a UVB radiometer. […]
Methods. […] The relative efficacy of the treatment was evaluated utilizing endpoints of epidermal thickness, leukocyte invasion, labeling (with BrdU) index, p53 mutations and 8-OH-dG formation. […]

[1] = system: mitochondrial fraction of Jurkat cells; assay: Cytochrome c release in a cell free system; type: biochemical, human; details: isolated mitochondria; 25 μM pretreatment
Procedure: Isolation of the Submitochondrial Fraction. Jurkat cells (1.5-2.0×10^7) were suspended in 1 ml sucrose buffer (250 mM sucrose in 30 mM Tris-HCl pH 7.4) and transferred into an N2 cavitation chamber (PARR Instruments Company, Moline, Ill.). The cells were subjected to N2 cavitation (300 psi for 5 min) as per the manufacturer's instructions. Under these conditions most of the cell membrane was disrupted with no change in the mitochondrial respiratory activity. Next, DNA and the nuclear fraction were removed by centrifugation (1500 g, 30 sec). The supernatant was further centrifuged (16000 g, 10 min) and the pellet was used as the submitochondrial fraction.
To observe if monoterpene/triterpenoid saponins directly affected mitochondria to induce apoptosis, experiments were carried out using avicin G in a cell free system. Mitochondria were isolated from Jurkat cells by the N2 cavitation method.

PARP in Jurkat cells = assay: Immunoblot analysis of PARP degradation; type: cell-based, human
Procedure: Apoptosis induced by F035 & D1 was examined by proteolytic cleavage of poly (ADP-ribose) polymerase (PARP). Jurkat cells (2×10^6/ml) were treated with F035 (2 μg/ml) and D1 (2 μg/ml) for different lengths of time. Cell lysates were prepared in buffer containing 20 mM HEPES, 250 mM NaCl, 2 mM EDTA, 0.1% NP-40, 2 μg/ml leupeptin, 2 μg/ml aprotinin, 0.5 μg/ml benzamidine, 1 mM DTT and 1 mM PMSF. Cellular proteins (60 μg/ml) were separated on a 7.5% SDS polyacrylamide gel and electrotransferred onto a nitrocellulose membrane. The membrane was probed first with monclonal anti-PARP antibody (PharMingen) and then with anti-mouse antibody conjugated to horse radish peroxidase (HRPO). Protein bands were detected by chemiluminescense (ECL, Amersham). The extent of cleavage of the 116-kDa PARP into 85-kDa and 41-kDa peptide products was used as a measure of apoptosis (Tewari et al., 1995).
Immunoblot Analysis of PARP Degradation. Induction of apoptosis was also examined by proteolytic cleavage of PARP (Nicholson and Thornberry, 1997). Jurkat cells (3×10^6) were treated with 2 μg/ml of F094, avicin D, or avicin G at 37° C. Cell lysates were prepared in a buffer containing 20 mM HEPES, 250 mM NaCl, 2 mM EDTA, 0.1% NP-40, 2 μg/ml leupeptin, 2 μg/ml aprotinin, 0.5 μg/ml benzamidine, 1 mM DTT, and 1 mM PMSF. Cellular proteins (60 μg/ml) were separated on a 7.5% SDS polyacrylamide gel and electrotransferred onto a nitrocellulose membrane. The membrane was probed first with monoclonal anti-PARP antibody (Pharmingen) and then with anti-mouse antibody conjugated to horseradish peroxidase (HRPO). Protein bands were detected by chemiluminescence (ECL). The appearance of an 85 kDa cleavage product was used as a measure of apoptosis.

Row | Substance | decrease in number of cycling cells (BrdU labeling) (SKH-1 hairless mice) | effect on avicin G induced cytochrome c release [1] | effect on cleavage of PARP induced by F094 or avicins (PARP in Jurkat cells; 100 μM pretreatment 1 hour) | effect on F035 induced cleavage of PARP (PARP in Jurkat cells; 100 μM pretreatment for 1 h)
1 | Vitamin E | 30% |  |  | 
2 | z-Val-Ala-Asp-CH2F [z-vad fmk, reference compound] |  | did not affect the release of cytochrome c | totally blocked the cleavage of PARP | completely reversed
